Columns and labels:
Assay in all cases: Post-emergence herbicidal activity test (stem and leaf spray, pot culture)
Assay type in all cases: in vivo
Settings in all cases: 3 weeks after spraying
Abutilon theophrasti = test system: Abutilon theophrasti
In short: (§1)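 Foliar spray, 2–3-leaf stage, 10/5/2.5 g/mu; acetone/Tween 80 + methyl oleate 1.5 L/ha. Greenhouse 3 wk, 20–30 °C. Score: fresh-wt control, grade 5 ≥85% … grade 0 <5%.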

Amaranthus retroflexus = test system: Amaranthus retroflexus
In short: as §1

Echinochloa crusgalli = test system: Echinochloa crusgalli
In short: as §1

Portulaca oleracea = test system: Portulaca oleracea
In short: as §1

Setaria viridis = test system: Setaria viridis
In short: as §1

Trifoliumre pensL. = test system: Trifoliumre pensL.
In short: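 Pot-grown weeds in loam (pH 7), greenhouse at 20–30 °C, sprayed once post-emergence at the 2–3-leaf stage. Compound in acetone with Tween 80 plus methyl oleate oil (1.5 L/ha), applied at 10, 5 and 2.5 g/mu by spray tower. Effect scored 3 weeks after spraying, averaged over three repeats.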

Row | Compound | Post-emergence herbicidal activity, A. theophrasti (grade) (Abutilon theophrasti; dosage 2.5 g/mu) | Post-emergence herbicidal activity, A. theophrasti (grade) (Abutilon theophrasti; dosage 5 g/mu) | Post-emergence herbicidal activity, A. theophrasti (grade) (Abutilon theophrasti; dosage 10 g/mu) | Post-emergence herbicidal activity, A. retroflexus (grade) (Amaranthus retroflexus; dosage 2.5 g/mu) | Post-emergence herbicidal activity, A. retroflexus (grade) (Amaranthus retroflexus; dosage 5 g/mu) | Post-emergence herbicidal activity, A. retroflexus (grade) (Amaranthus retroflexus; dosage 10 g/mu) | Post-emergence herbicidal activity, E. crusgalli (grade) (Echinochloa crusgalli; dosage 2.5 g/mu) | Post-emergence herbicidal activity, E. crusgalli (grade) (Echinochloa crusgalli; dosage 5 g/mu) | Post-emergence herbicidal activity, E. crusgalli (grade) (Echinochloa crusgalli; dosage 10 g/mu) | Post-emergence herbicidal activity, P. oleracea (grade) (Portulaca oleracea; dosage 2.5 g/mu) | Post-emergence herbicidal activity, P. oleracea (grade) (Portulaca oleracea; dosage 5 g/mu) | Post-emergence herbicidal activity, P. oleracea (grade) (Portulaca oleracea; dosage 10 g/mu) | Post-emergence herbicidal activity, S. viridis (grade) (Setaria viridis; dosage 2.5 g/mu) | Post-emergence herbicidal activity, S. viridis (grade) (Setaria viridis; dosage 5 g/mu) | Post-emergence herbicidal activity, S. viridis (grade) (Setaria viridis; dosage 10 g/mu) | Post-emergence herbicidal activity, Trifoliumre pensL. (grade) (Trifoliumre pensL.; dosage 2.5 g/mu) | Post-emergence herbicidal activity, Trifoliumre pensL. (grade) (Trifoliumre pensL.; dosage 5 g/mu) | Post-emergence herbicidal activity, Trifoliumre pensL. (grade) (Trifoliumre pensL.; dosage 10 g/mu)
1 | O=C1C2=C(CCCC2)C(=O)N1c1cc(OCc2nnc(-c3ccccc3F)o2)c(Cl)cc1F [Compound B4] | 4 (Grade 4: the growth control rate is greater than or equal to 60% and less than 85%) | 5 (Grade 5: the growth control rate is greater than or equal to 85%) | 5 (Grade 5: the growth control rate is greater than or equal to 85%) | 5 (Grade 5: the growth control rate is greater than or equal to 85%) | 5 (Grade 5: the growth control rate is greater than or equal to 85%) | 5 (Grade 5: the growth control rate is greater than or equal to 85%) | 1 (Grade 1: the growth control rate is greater than or equal to 5% and less than 20%) | 2 (Grade 2: the growth control rate is greater than or equal to 20% and less than 40%) | 3 (Grade 3: the growth control rate is greater than or equal to 40% and less than 60%) | 4 (Grade 4: the growth control rate is greater than or equal to 60% and less than 85%) | 5 (Grade 5: the growth control rate is greater than or equal to 85%) | 5 (Grade 5: the growth control rate is greater than or equal to 85%) | 2 (Grade 2: the growth control rate is greater than or equal to 20% and less than 40%) | 3 (Grade 3: the growth control rate is greater than or equal to 40% and less than 60%) | 4 (Grade 4: the growth control rate is greater than or equal to 60% and less than 85%) | 5 (Grade 5: the growth control rate is greater than or equal to 85%) | 5 (Grade 5: the growth control rate is greater than or equal to 85%) | 5 (Grade 5: the growth control rate is greater than or equal to 85%)
2 | O=C1C2=C(CCCC2)C(=O)N1c1cc(OCc2nnc(-c3ccccc3Cl)o2)c(Cl)cc1F [Compound B5] | 5 (Grade 5: the growth control rate is greater than or equal to 85%) | 5 (Grade 5: the growth control rate is greater than or equal to 85%) | 5 (Grade 5: the growth control rate is greater than or equal to 85%) | 5 (Grade 5: the growth control rate is greater than or equal to 85%) | 5 (Grade 5: the growth control rate is greater than or equal to 85%) | 5 (Grade 5: the growth control rate is greater than or equal to 85%) | 1 (Grade 1: the growth control rate is greater than or equal to 5% and less than 20%) | 2 (Grade 2: the growth control rate is greater than or equal to 20% and less than 40%) | 3 (Grade 3: the growth control rate is greater than or equal to 40% and less than 60%) | 5 (Grade 5: the growth control rate is greater than or equal to 85%) | 5 (Grade 5: the growth control rate is greater than or equal to 85%) | 5 (Grade 5: the growth control rate is greater than or equal to 85%) | 2 (Grade 2: the growth control rate is greater than or equal to 20% and less than 40%) | 3 (Grade 3: the growth control rate is greater than or equal to 40% and less than 60%) | 4 (Grade 4: the growth control rate is greater than or equal to 60% and less than 85%) | 5 (Grade 5: the growth control rate is greater than or equal to 85%) | 5 (Grade 5: the growth control rate is greater than or equal to 85%) | 5 (Grade 5: the growth control rate is greater than or equal to 85%)
3 | O=C1C2=C(CCCC2)C(=O)N1c1cc(OCc2nnc(-c3ccccc3Br)o2)c(Cl)cc1F [Compound B6] | 5 (Grade 5: the growth control rate is greater than or equal to 85%) | 5 (Grade 5: the growth control rate is greater than or equal to 85%) | 5 (Grade 5: the growth control rate is greater than or equal to 85%) | 5 (Grade 5: the growth control rate is greater than or equal to 85%) | 5 (Grade 5: the growth control rate is greater than or equal to 85%) | 5 (Grade 5: the growth control rate is greater than or equal to 85%) | 1 (Grade 1: the growth control rate is greater than or equal to 5% and less than 20%) | 2 (Grade 2: the growth control rate is greater than or equal to 20% and less than 40%) | 3 (Grade 3: the growth control rate is greater than or equal to 40% and less than 60%) | 5 (Grade 5: the growth control rate is greater than or equal to 85%) | 5 (Grade 5: the growth control rate is greater than or equal to 85%) | 5 (Grade 5: the growth control rate is greater than or equal to 85%) | 2 (Grade 2: the growth control rate is greater than or equal to 20% and less than 40%) | 3 (Grade 3: the growth control rate is greater than or equal to 40% and less than 60%) | 4 (Grade 4: the growth control rate is greater than or equal to 60% and less than 85%) | 5 (Grade 5: the growth control rate is greater than or equal to 85%) | 5 (Grade 5: the growth control rate is greater than or equal to 85%) | 5 (Grade 5: the growth control rate is greater than or equal to 85%)
4 | O=C1C2=C(CCCC2)C(=O)N1c1cc(OCc2nnc(-c3ccccc3I)o2)c(Cl)cc1F [Compound B7] | 5 (Grade 5: the growth control rate is greater than or equal to 85%) | 5 (Grade 5: the growth control rate is greater than or equal to 85%) | 5 (Grade 5: the growth control rate is greater than or equal to 85%) | 5 (Grade 5: the growth control rate is greater than or equal to 85%) | 5 (Grade 5: the growth control rate is greater than or equal to 85%) | 5 (Grade 5: the growth control rate is greater than or equal to 85%) | 1 (Grade 1: the growth control rate is greater than or equal to 5% and less than 20%) | 2 (Grade 2: the growth control rate is greater than or equal to 20% and less than 40%) | 3 (Grade 3: the growth control rate is greater than or equal to 40% and less than 60%) | 5 (Grade 5: the growth control rate is greater than or equal to 85%) | 5 (Grade 5: the growth control rate is greater than or equal to 85%) | 5 (Grade 5: the growth control rate is greater than or equal to 85%) | 2 (Grade 2: the growth control rate is greater than or equal to 20% and less than 40%) | 3 (Grade 3: the growth control rate is greater than or equal to 40% and less than 60%) | 4 (Grade 4: the growth control rate is greater than or equal to 60% and less than 85%) | 5 (Grade 5: the growth control rate is greater than or equal to 85%) | 5 (Grade 5: the growth control rate is greater than or equal to 85%) | 5 (Grade 5: the growth control rate is greater than or equal to 85%)

Source: patent publication US20240300932A1, “N-PHENYLIMINE DERIVATIVE AND PREPARATION METHOD AND USE THEREOF” (Guizhou University, priority 2023, published 2024)
